The text below walks through data of ChEMBL document CHEMBL1201862, “PubChem BioAssay data set” (2004).

Molecules are shown by their SMILES. Calls of active or inactive are those of the source.

One may read the EC50 as the midpoint of the concentration-response curve. The term CC50 denotes the concentration that lowers cell viability or growth by half. What is called AC50 is the concentration giving half of the maximal activity seen.

The target of assay [1] is T1, Protein RecA (Mycobacterium tuberculosis, UniProt P9WHJ3).
T1 sequence (P9WHJ3 whole entry): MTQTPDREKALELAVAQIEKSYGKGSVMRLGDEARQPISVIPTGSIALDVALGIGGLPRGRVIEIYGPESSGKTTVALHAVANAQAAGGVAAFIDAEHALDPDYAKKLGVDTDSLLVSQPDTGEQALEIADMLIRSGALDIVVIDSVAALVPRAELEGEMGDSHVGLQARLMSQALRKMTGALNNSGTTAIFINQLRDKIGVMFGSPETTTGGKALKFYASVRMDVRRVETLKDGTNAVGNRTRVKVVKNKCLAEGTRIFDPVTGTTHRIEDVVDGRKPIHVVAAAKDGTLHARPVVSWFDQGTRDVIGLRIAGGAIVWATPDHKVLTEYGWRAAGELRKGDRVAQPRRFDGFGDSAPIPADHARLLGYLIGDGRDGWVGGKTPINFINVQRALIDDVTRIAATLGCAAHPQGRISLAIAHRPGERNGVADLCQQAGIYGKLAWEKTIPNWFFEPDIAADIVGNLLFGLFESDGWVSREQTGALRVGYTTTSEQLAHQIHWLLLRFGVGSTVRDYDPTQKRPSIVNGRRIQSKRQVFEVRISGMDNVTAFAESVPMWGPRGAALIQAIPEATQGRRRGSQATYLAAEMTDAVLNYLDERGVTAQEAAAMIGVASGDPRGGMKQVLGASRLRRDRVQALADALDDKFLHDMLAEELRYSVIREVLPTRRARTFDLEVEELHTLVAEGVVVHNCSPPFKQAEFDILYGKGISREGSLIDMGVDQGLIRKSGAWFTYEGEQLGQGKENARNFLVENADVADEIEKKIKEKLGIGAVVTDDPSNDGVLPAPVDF
Description: Fluorescence Cell-Free Homogeneous Dose Retest to Identify Inhibitors of RecA-Intein Splicing Activity. [Related pubchem assays (depositor defined):AID2097, AID2223, AID489010, AID492950]. The format is functional.

The test system of assay [2] is Vero. The assay is described as follows: viability of Vero cells under compound – cytotoxicity control for flavivirus capping enzyme inhibitors (AID 588742). In kind it is functional. Conditions: Chlorocebus sabaeus.
Assay [3] concerns the target T2, Replicative DNA helicase DnaB (Mycobacterium tuberculosis, UniProt P9WMR3).
T2 sequence (P9WMR3 whole entry): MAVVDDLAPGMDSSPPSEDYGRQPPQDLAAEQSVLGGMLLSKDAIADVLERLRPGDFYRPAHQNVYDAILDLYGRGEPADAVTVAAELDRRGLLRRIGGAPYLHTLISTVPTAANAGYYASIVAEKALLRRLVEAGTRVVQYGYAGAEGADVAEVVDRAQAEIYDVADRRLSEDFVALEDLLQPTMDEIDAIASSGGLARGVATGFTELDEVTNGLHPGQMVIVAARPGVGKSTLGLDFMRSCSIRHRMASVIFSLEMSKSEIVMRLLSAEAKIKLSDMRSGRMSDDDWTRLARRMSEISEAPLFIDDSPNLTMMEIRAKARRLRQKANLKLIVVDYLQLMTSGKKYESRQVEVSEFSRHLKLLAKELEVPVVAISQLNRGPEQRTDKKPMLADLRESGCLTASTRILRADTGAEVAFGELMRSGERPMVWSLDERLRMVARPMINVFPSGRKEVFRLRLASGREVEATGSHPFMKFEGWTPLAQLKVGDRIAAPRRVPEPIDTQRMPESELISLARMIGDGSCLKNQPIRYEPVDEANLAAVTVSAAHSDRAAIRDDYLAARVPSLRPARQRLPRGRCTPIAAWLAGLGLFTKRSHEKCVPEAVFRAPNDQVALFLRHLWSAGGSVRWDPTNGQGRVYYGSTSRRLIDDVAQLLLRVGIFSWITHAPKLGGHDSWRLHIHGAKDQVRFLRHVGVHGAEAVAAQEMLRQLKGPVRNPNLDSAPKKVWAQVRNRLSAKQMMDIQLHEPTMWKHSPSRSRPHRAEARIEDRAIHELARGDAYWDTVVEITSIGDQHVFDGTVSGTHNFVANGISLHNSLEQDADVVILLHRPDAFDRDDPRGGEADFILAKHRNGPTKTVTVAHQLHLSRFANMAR
Description: DnaB intein splicing inhibitors, dose response, biochemical, cell-free fluorescence (AID 449749). In kind it is functional.

The target in assay [4] is T3, Mannose-6-phosphate isomerase (Homo sapiens, UniProt P34949).
T3 sequence (P34949 whole entry): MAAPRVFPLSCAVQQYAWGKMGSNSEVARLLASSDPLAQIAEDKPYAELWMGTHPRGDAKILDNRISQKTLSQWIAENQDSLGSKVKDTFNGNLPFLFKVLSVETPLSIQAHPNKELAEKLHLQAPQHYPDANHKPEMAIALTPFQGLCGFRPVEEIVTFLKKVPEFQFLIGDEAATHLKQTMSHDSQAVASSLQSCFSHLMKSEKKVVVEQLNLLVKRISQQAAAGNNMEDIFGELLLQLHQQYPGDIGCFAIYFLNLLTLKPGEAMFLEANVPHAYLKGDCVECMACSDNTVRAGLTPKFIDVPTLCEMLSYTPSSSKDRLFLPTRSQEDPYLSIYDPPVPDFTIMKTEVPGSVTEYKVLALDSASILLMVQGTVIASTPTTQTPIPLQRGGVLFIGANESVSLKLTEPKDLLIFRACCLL
Description: MPI inhibition at elevated mannose 6-phosphate – biochemical, fluorescence intensity, high mannose 6-phosphate, primary screen (AID 1220).

In assay [5] the target is T4, Polyadenylate-binding protein 1 (Homo sapiens, UniProt P11940). The assay is described as follows: MLLE domain peptide-binding blockers, IC50 – biochemical, fluorescence polarization, FITC-PAM2 peptide, dose response (AID 602259). The format is functional. The conditions noted are these: read-out: IC50_Mean. A general note: In fluorescence polarisation assays a small probe gives low polarisation when free and higher when bound to something large.

The target in assay [6] is T3, Mannose-6-phosphate isomerase. Description: MPI enzyme activity inhibition – biochemical, fluorescence intensity, coupled assay, primary screen (AID 1209).
Assay [7] deals with T4, Polyadenylate-binding protein 1. Description: MLLE binding blockers, Cy5 peptide tracer – biochemical, fluorescence polarization, Cy5-PAM2 peptide, secondary, miRNA deadenylation inhibitor project, dose response (AID 602260). Conditions: read-out: IC50_Mean. In kind it is functional.
For assay [8], the target named is T5, Mucolipin-3 (Homo sapiens, UniProt Q8TDD5).
T5 sequence (Q8TDD5 whole entry): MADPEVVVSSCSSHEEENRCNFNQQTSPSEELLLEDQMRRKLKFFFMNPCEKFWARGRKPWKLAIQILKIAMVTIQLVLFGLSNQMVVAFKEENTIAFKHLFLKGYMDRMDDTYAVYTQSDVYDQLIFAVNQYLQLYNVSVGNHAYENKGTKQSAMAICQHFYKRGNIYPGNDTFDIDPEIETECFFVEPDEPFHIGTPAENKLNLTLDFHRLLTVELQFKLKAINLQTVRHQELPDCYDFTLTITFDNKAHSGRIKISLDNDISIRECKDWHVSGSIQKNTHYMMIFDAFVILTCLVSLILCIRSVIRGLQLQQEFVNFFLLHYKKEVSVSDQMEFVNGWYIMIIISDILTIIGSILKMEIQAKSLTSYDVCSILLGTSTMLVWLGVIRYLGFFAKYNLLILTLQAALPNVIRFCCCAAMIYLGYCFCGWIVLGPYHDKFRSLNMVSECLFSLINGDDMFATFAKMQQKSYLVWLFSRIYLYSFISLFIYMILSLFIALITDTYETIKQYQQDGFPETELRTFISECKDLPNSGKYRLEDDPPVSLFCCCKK
The assay is described as follows: Dose response cell-based high-throughput screening assay for agonists of the transient receptor potential channel ML3 (TRPML3). [Related pubchem assays: 1526, 1424, 1448 ]. In kind it is functional.

The target in assay [9] is Ion channel NompC (Danio rerio, UniProt Q7T1G6). Description: Fluorescence counterscreen assay for TRPML3 agonists: dose response cell-based high-throughput screening assay to identify agonists of the transient receptor potential channel N1 (TRPN1). [Related pubchem assays: 1526, 1424, 1448 ]. In kind it is functional.
Assay [10] relates to Streptococcus. Description: GAS UMAA2166 growth inhibition – luminescence, BacTiterGlo, counter-screen for streptokinase expression inhibitor project, dose response (AID 1915).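 Further: potency for reduction of bacterial viability or growth.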 The format is functional, organism-based. On the technique in general: The purpose of a counterscreen is to sort out artefacts and off-target activity.
In assay [11] the test system is Streptococcus sp. 'group A'. The assay is described as follows: Streptococcus pyogenes SK(-)GAS viability under kanamycin – luminescence, BacTiterGlo, confirmation, counter-screen for streptokinase expression inhibitor project, dose response (AID 1900). The format is functional, organism-based.
Assay [12] deals with T6, Streptokinase A (Streptococcus pyogenes serotype M1, UniProt P10520).
T6 sequence (P10520 whole entry): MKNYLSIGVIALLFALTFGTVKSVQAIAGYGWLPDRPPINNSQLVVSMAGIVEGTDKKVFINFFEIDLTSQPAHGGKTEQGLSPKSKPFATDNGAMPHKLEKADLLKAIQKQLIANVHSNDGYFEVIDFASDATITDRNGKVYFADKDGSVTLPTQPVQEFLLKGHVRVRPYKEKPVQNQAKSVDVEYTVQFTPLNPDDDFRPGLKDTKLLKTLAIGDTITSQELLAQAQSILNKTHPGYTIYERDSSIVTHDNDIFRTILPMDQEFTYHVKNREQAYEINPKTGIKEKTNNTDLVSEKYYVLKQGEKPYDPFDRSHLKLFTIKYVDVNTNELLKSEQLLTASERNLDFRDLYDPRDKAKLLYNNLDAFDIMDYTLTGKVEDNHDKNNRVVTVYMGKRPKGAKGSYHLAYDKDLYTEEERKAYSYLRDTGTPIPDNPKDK
The assay is described as follows: viability-normalized secreted streptokinase activity reduction – plasminogen activation absorbance, OD405, dose response (AID 1914).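 Further: secreted streptokinase activity via plasminogen activation per viability signal from cell pellet.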 The format is functional, Streptococcus pyogenes M1 GAS.

Assay [13] addresses T7, Neuropeptide Y receptor type 1 (Homo sapiens, UniProt P25929).
T7 sequence (P25929 whole entry): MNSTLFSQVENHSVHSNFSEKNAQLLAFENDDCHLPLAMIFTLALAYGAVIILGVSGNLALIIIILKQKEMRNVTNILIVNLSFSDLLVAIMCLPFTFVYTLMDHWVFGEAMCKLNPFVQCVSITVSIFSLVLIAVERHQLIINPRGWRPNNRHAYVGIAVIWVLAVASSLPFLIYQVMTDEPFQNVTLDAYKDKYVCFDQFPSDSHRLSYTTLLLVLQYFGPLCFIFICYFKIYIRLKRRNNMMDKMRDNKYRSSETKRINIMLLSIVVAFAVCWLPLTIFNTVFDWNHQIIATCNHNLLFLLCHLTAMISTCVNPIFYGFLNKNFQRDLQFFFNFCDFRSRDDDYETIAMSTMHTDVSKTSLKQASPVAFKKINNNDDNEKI
In kind it is functional.

The target of assay [14] is T8, Neuropeptide Y receptor type 2 (Homo sapiens, UniProt P49146).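 Further: HEK293 cells expressing the receptor and a CNG channel; stimulus was NPY near EC95 followed by isoproterenol to raise cAMP; antagonist potency measured as restoring cAMP signal that NPY suppresses.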
T8 sequence (P49146 whole entry): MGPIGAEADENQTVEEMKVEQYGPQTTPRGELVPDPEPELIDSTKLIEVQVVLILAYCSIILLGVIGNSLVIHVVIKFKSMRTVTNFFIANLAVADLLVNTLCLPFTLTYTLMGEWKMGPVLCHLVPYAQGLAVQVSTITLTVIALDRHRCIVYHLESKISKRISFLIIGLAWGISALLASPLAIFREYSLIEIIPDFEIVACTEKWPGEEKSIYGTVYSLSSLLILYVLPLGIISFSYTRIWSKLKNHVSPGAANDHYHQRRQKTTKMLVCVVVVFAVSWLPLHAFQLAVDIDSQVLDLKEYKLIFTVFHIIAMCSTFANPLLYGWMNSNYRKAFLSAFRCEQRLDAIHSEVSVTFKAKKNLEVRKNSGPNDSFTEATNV
The format is functional, cell-based.

In assay [15] the target is Large T antigen (Simian virus 40, UniProt P03070). In kind it is functional, Betapolyomavirus macacae.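 Further: Confirmatory-stage PubChem screen for compounds that inhibit SV40 T antigen.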
Assay [16] deals with NS3 (Hepatitis C virus, UniProt A3EZJ3). The assay is described as follows: PubChem AID 2173. Also noted: species or system Hepacivirus hominis.
Sequence of NS3 (A3EZJ3 whole entry): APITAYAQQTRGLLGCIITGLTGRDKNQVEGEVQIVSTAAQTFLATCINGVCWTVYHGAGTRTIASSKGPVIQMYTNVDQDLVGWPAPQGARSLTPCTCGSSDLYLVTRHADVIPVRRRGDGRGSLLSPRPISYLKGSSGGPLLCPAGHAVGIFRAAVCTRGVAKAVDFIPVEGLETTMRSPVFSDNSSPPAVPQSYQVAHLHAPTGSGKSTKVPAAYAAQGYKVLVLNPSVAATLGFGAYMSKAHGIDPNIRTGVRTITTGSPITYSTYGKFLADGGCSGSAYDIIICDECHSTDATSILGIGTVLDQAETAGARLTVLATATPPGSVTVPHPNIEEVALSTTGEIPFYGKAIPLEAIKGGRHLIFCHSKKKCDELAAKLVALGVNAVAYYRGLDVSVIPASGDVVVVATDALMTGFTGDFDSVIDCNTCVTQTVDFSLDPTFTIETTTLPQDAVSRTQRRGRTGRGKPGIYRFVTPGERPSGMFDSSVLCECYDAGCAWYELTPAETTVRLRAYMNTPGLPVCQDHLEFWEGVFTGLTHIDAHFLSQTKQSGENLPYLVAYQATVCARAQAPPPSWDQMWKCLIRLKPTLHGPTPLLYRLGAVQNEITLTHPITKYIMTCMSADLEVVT

Sequence of Ion channel NompC (Q7T1G6 whole entry): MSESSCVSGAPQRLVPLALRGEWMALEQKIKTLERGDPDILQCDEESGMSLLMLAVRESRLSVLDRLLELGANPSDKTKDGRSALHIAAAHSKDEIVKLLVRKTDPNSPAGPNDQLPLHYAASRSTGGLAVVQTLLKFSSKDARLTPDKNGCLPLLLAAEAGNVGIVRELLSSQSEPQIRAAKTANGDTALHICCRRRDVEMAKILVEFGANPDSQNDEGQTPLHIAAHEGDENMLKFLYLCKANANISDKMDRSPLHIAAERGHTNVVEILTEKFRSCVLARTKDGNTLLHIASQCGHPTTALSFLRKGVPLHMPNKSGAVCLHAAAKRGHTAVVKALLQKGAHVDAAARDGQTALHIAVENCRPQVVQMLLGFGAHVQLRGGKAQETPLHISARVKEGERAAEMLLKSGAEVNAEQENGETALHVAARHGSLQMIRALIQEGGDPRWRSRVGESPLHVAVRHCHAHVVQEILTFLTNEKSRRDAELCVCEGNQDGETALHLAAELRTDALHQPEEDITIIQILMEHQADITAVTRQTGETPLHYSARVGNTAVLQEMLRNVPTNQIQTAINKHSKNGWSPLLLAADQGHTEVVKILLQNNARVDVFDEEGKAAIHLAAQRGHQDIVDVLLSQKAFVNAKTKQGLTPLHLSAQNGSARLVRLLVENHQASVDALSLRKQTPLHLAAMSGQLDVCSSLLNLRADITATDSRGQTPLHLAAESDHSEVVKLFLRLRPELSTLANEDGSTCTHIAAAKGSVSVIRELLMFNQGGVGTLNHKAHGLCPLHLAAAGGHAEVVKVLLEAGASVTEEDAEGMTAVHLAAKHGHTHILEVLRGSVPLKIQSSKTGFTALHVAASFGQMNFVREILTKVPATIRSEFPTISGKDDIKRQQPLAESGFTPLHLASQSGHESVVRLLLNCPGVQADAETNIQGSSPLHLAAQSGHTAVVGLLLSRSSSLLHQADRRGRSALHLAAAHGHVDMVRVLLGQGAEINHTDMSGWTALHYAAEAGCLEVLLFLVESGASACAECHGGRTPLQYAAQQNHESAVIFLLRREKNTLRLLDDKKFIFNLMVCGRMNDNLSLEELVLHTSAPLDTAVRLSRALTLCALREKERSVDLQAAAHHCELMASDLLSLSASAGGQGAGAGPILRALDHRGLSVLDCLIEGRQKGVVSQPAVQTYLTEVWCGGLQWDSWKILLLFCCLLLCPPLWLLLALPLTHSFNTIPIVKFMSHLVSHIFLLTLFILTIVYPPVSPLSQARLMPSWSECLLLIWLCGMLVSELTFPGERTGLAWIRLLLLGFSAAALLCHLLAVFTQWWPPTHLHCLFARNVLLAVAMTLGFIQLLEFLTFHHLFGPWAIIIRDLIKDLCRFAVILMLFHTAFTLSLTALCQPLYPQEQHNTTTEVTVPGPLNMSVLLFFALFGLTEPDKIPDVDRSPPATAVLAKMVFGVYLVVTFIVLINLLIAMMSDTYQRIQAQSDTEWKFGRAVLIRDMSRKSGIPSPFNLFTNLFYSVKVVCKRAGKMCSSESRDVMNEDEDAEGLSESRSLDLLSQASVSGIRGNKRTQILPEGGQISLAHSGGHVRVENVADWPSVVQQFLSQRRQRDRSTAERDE
T4 sequence (P11940 whole entry, the tested form may be a part): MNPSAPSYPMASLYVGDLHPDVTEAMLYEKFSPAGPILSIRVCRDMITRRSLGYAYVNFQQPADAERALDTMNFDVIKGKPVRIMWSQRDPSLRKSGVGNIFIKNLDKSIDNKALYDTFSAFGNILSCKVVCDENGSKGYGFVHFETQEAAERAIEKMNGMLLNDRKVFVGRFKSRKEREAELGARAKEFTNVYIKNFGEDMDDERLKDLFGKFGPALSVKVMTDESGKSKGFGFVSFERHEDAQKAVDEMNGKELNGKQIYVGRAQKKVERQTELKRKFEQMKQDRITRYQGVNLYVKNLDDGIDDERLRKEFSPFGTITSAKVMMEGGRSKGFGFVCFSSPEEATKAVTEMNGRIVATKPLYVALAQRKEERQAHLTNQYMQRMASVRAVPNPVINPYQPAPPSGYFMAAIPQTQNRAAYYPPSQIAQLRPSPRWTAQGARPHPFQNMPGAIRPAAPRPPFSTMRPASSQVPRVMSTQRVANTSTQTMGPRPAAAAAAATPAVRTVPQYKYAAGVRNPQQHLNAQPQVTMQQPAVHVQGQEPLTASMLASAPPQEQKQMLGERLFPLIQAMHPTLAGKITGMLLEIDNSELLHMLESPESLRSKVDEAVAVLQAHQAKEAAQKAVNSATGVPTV
Sequence of Large T antigen (P03070 whole entry): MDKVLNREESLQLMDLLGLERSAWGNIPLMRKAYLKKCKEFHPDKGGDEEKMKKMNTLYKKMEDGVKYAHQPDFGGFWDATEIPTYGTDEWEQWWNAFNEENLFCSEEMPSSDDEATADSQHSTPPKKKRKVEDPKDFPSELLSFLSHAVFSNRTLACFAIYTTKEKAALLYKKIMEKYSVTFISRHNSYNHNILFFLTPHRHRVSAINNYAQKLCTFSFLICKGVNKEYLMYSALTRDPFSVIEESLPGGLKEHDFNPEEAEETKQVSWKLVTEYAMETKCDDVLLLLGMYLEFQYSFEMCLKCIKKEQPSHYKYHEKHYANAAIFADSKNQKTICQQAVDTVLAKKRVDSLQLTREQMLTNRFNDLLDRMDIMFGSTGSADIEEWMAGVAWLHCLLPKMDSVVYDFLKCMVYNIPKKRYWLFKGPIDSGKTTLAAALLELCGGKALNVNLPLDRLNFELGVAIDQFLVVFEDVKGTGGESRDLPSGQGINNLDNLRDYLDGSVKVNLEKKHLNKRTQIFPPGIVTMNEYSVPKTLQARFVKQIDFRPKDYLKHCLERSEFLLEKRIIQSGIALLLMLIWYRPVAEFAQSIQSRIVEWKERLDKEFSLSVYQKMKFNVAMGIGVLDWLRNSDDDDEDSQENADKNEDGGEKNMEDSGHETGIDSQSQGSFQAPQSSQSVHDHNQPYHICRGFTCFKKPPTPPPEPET

For `CCOC(=O)c1c(C)oc2c1c(/C=N/CCO)c(O)c1ccccc12`, the EC50 in [1] was 0.618 µM (active). For the same compound, in assay [2], the CC50 is 32.9 µM (active). Moreover, in [3], the AC50 is > 380 µM (inactive). Further, the IC50 is 4.48 µM (active) in [4], > 66 µM (inactive) in [5], 5.36 µM (active) in [6] and > 66 µM (inactive) in assay [7].
Turning to `COc1ccccc1C1CN=NC12CCCc1ccccc1C2=O` (configuration not stated), the figures for the EC50 in [8] and in [9] were 1.83 µM (active) and > 29.9 µM (not active), respectively.
With `Cc1cc(C)n(-c2nc(C)nc(NCc3ccccc3)n2)n1`, the EC50 in assay [10] was > 150 µM (not active); in assay [8], > 29.9 µM (not active); in [11], 42.4 µM (active); in assay [12], > 150 µM (not active); in assay [9], > 29.9 µM (not active).
`Cc1nc2ccc(F)cc2cc1C(=O)Nc1ccc(Cl)c(Cl)c1`: the IC50 in assay [13] is 8.84 µM (active); in [14] it was 8.88 µM (active).
The like results for `c1ccc(COc2ccc(OCCCCN3CCCCC3)cc2)cc1` were, in that order, 9.46 µM (active) and > 35 µM (not active).
In the case of `COc1ccc2c(c1)-c1nc(/N=C/c3ccc(O)c(OC)c3)sc1CC2`, the IC50 was > 50 µM (not active) in [4], 15.5 µM (active) in assay [15] and > 50 µM (not active) in [6].
Regarding `COc1ccc2[nH]c3c(=O)n(CCCC(=O)NC4CCCCC4C)c(=S)[nH]c3c2c1` (configuration not stated), the IC50 in assay [16] is listed as 45.7 µM (not active).
